The numbers were not newly measured in article PMC9284491 (Nature Communications, 2022), which cites them from elsewhere.

Molecules are shown by their SMILES.

One series concerns the target T1, ER (Homo sapiens, UniProt P03372).
T1 sequence (P03372 1-595): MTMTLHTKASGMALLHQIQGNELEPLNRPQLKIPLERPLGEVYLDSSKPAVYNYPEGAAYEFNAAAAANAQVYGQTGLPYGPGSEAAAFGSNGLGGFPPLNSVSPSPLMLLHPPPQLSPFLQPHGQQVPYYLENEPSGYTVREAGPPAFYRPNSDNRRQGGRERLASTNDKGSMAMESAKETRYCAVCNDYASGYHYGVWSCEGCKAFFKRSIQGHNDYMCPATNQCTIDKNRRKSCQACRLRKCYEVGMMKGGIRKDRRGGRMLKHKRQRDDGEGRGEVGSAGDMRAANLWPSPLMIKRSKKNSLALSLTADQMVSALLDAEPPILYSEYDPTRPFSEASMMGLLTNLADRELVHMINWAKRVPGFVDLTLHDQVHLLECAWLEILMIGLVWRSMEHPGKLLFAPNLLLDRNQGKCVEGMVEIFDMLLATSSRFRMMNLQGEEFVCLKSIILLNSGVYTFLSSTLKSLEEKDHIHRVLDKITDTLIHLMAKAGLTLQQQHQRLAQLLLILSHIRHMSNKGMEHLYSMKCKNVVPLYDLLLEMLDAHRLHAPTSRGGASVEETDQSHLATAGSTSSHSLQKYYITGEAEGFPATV
The settings on record: maximum 500 mg dose; cited from earlier work.

The conditions of series [1]: 500 mg intramuscular (day 1, day 14 of cycle 1, monthly from cycle 2); cited from earlier work.

With `C[C@]12CC[C@@H]3c4ccc(O)cc4C[C@@H](CCCCCCCCC[S+]([O-])CCCC(F)(F)C(F)(F)F)[C@H]3[C@@H]1CC[C@@H]2O` (some centres unmarked) [fulvestrant], at ER, the “ER occupancy at maximum dose” value is reported as “does not fully occupy the ER”. Also, the “Ctrough at steady state” value in series [1] was 12.5 ng/mL.
